Our source for the IC50, Inhibition and inhibition values is ChEMBL document CHEMBL1127662, “3-Alkoxybenzo[b]thiophene-2-carboxamides as inhibitors of neutrophil-endothelial cell adhesion” (J Med Chem, 1994).

The subject of the first assay is HUVEC. Description: (§1) Tested for adhesion of neutrophils to human umbilical vein endothelial cell at the dose of 100 uM. Type of assay: functional, cell-based.
`COc1ccc2c(c1)c(OC(C)C)c(C(N)=O)[s+]2[O-]` (stereo not drawn): the midpoint of inhibition, the IC50, lay at 8.7 µM. Still for that read-out and setting: under `CC(C)Oc1c(C(N)=O)sc2ccc(O)cc12` stands 6.4 µM; under `CNC(=O)c1sc2ccc(OC)cc2c1OC(C)C`, 15 µM. As for `COc1ccc2c(c1)C(OC(C)C)=C(C(N)=O)S2(=O)=O`, the Inhibition was under 4%. In turn, `CC(C)Oc1c(C(N)=O)sc2ccc([N+](=O)[O-])cc12` displayed an Inhibition of 40%.

Another assay relates to HUVEC. The description is as §1. Type of assay: functional.
For the compound `CC(C)Oc1c(C(N)=O)sc2ccc(N)cc12`, testing at 100 µM gave an inhibition of 49%. The compound `CC(C)Oc1c(C(N)=O)sc2ccccc12` had an inhibition at 100 µM of 60%. The same measure, in the same setting: under `COc1cccc2c(OC(C)C)c(C(N)=O)sc12` stands 35%; under `CC(C)Oc1c(C(N)=O)sc2ccc(Cl)cc12`, 72%.

Compound `Cc1ccc2sc(C(N)=O)c(OC(C)C)c2c1` had an inhibition at 100 µM of 61%.

`COc1ccc2sc(C(=O)Nc3ccccc3)c(OC(C)C)c2c1` came in with an inhibition at 100 µM of 12%. Still for that read-out and setting: for `CC(C)Oc1c(C(N)=O)sc2ccc(OCc3ccccc3)cc12` the value was under 4%. The compound `COc1ccc2sc(C(N)=O)c(Oc3ccccc3)c2c1` registered an inhibition at 100 µM of 59%. `COc1ccc2c(OC(C)C)c(C(N)=O)sc2c1` displayed an inhibition at 100 µM of 24%. For the compound `COc1ccc2sc(C(N)=O)c(OCc3ccccc3)c2c1`, the inhibition at 100 µM stood at 57%. Still for that read-out and setting: under `CCNC(=O)c1sc2ccc(OC)cc2c1OC(C)C` stands 64%; under `COc1ccc2sc(C(N)=O)c(OC(C)(C)C)c2c1`, 97%. The compound `COc1ccc2sc(C(N)=O)c(OC)c2c1` registered an inhibition at 100 µM of 60%.

In general, IC50 refers to the concentration that gives 50% inhibition. Usually Inhibition stands for how much of the control response was suppressed. One may read the inhibition as the relative decrease from the control value, in per cent.
